Measured values as given in ChEMBL document CHEMBL1201862, “PubChem BioAssay data set” (2004).
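48-hour exposure; five concentrations; linearly interpolated endpoints. At the GI50, growth is halved.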 Activity calls are given as the source filed them. Rule as the data show it: active = GI50 up to about 1.1 µM and inactive = higher.

Columns and labels:
Test in all cases: NCI-60 cell line screen, 48 h
SNB-19 = system: SNB-19
UO-31 = system: UO-31
HOP-92 = system: HOP-92
OVCAR-5 = system: OVCAR-5
HT-29 = system: HT-29
OVCAR-8 = system: OVCAR-8
A549 = system: A549
M14 = system: M14
NCI-H23 = system: NCI-H23
UACC-257 = system: UACC-257
HCT-116 = system: HCT-116
SR = system: SR
NCI-H226 = system: NCI-H226
NCI-H460 = system: NCI-H460
M19-MEL = system: M19-MEL
RXF 631 = system: RXF 631
KM12 = system: KM12
SK-MEL-28 = system: SK-MEL-28
SF-295 = system: SF-295
TK-10 = system: TK-10
IGROV-1 = system: IGROV-1
HOP-62 = system: HOP-62
CCRF-CEM = system: CCRF-CEM
NCI-H522 = system: NCI-H522
SK-OV-3 = system: SK-OV-3
DMS-273 = system: DMS-273
SNB-78 = system: SNB-78
MOLT-4 = system: MOLT-4
HL-60 = system: HL-60
ACHN = system: ACHN
EKVX = system: EKVX
A498 = system: A498
RXF 393 = system: RXF 393
U-251 = system: U-251
DMS-114 = system: DMS-114
OVCAR-4 = system: OVCAR-4
SK-MEL-2 = system: SK-MEL-2
HCT-15 = system: HCT-15
OVCAR-3 = system: OVCAR-3
CAKI-1 = system: CAKI-1
K562 = system: K562
COLO 205 = system: COLO 205
SF-268 = system: SF-268
786-0 = system: 786-0
SNB-75 = system: SNB-75
SF-539 = system: SF-539
SK-MEL-5 = system: SK-MEL-5
KM-20L2 = system: KM-20L2
SN12C = system: SN12C
UACC-62 = system: UACC-62
HCC 2998 = system: HCC 2998
Malme-3M = system: Malme-3M
RPMI-8226 = system: RPMI-8226
SW-620 = system: SW-620
HOP-18 = system: HOP-18
LXFL 529 = system: LXFL 529
LOX IMVI = system: LOX IMVI
DLD-1 = system: DLD-1

In the case of `CCCC(=O)OCC1OC2OC(C)(C)OC2C2OC(C)(C)OC12` (stereo unspecified), the GI50 (SNB-19) is reported as > 100 µM (inactive), the GI50 (UO-31) is reported as > 100 µM (inactive) and the GI50 (HOP-92) is reported as > 100 µM (inactive). For the same compound, the GI50 (OVCAR-5) was > 100 µM (inactive), the GI50 (HT-29) was > 100 µM (inactive) and the GI50 (OVCAR-8) was > 100 µM (inactive). For the same compound, the GI50 (A549) was > 100 µM (inactive), the GI50 (M14) was > 100 µM (inactive) and the GI50 (NCI-H23) was > 100 µM (inactive). For the same compound, the GI50 (UACC-257) was > 100 µM (inactive), the GI50 (HCT-116) was > 100 µM (inactive) and the GI50 (SR) was > 100 µM (inactive). For the same compound, the GI50 (NCI-H226) was 19 µM (inactive), the GI50 (NCI-H460) was > 100 µM (inactive) and the GI50 (M19-MEL) was > 100 µM (inactive). The GI50 (RXF 631) was > 100 µM (inactive), the GI50 (KM12) was > 100 µM (inactive) and the GI50 (SK-MEL-28) was > 100 µM (inactive). The GI50 (SF-295) was > 100 µM (inactive), the GI50 (TK-10) was 23.6 µM (inactive) and the GI50 (IGROV-1) was > 100 µM (inactive). For the same compound, the GI50 (HOP-62) was > 100 µM (inactive), the GI50 (CCRF-CEM) was > 100 µM (inactive) and the GI50 (NCI-H522) was > 100 µM (inactive). The GI50 (SK-OV-3) was > 100 µM (inactive), the GI50 (DMS-273) was > 100 µM (inactive) and the GI50 (SNB-78) was > 100 µM (inactive). For the same compound, the GI50 (MOLT-4) was > 100 µM (inactive), the GI50 (HL-60) was > 100 µM (inactive) and the GI50 (ACHN) was > 100 µM (inactive). For the same compound, the GI50 (EKVX) was > 100 µM (inactive), the GI50 (A498) was > 100 µM (inactive) and the GI50 (RXF 393) was > 100 µM (inactive). For the same compound, the GI50 (U-251) was > 100 µM (inactive).

`Cc1cc(C)nc(NS(=O)(=O)c2ccc(Nc3c4ccccc4nc4c(C(=O)N5CCN(CCO)CC5)ccc(Cl)c34)cc2)n1` was tested, and the GI50 (DMS-114) was 72.3 µM (inactive), the GI50 (OVCAR-4) was > 100 µM (inactive) and the GI50 (SNB-19) was > 100 µM (inactive). For the same compound, the GI50 (UO-31) was > 100 µM (inactive), the GI50 (SK-MEL-2) was > 100 µM (inactive) and the GI50 (HOP-92) was > 100 µM (inactive). The GI50 (OVCAR-5) was > 100 µM (inactive), the GI50 (HCT-15) was 52.2 µM and the GI50 (HT-29) was 70 µM (inactive). For the same compound, the GI50 (OVCAR-8) was > 100 µM (inactive), the GI50 (A549) was > 100 µM (inactive) and the GI50 (M14) was 34 µM (inactive). For the same compound, the GI50 (NCI-H23) was > 100 µM (inactive), the GI50 (UACC-257) was 51.5 µM (inactive) and the GI50 (HCT-116) was 50.9 µM (inactive). For the same compound, the GI50 (OVCAR-3) was > 100 µM (inactive), the GI50 (NCI-H226) was > 100 µM (inactive) and the GI50 (CAKI-1) was > 100 µM (inactive). The GI50 (NCI-H460) was > 100 µM (inactive), the GI50 (K562) was 38.5 µM (inactive) and the GI50 (M19-MEL) was 76 µM (inactive). The GI50 (RXF 631) was 85.5 µM (inactive), the GI50 (KM12) was > 100 µM (inactive) and the GI50 (COLO 205) was 63 µM (inactive). The GI50 (SF-268) was 76.9 µM (inactive), the GI50 (SK-MEL-28) was > 100 µM (inactive) and the GI50 (786-0) was 68.1 µM (inactive). The GI50 (SF-295) was > 100 µM (inactive), the GI50 (TK-10) was > 100 µM (inactive) and the GI50 (SNB-75) was 87.9 µM (inactive). The GI50 (IGROV-1) was > 100 µM (inactive), the GI50 (SF-539) was > 100 µM (inactive) and the GI50 (HOP-62) was > 100 µM (inactive). The GI50 (SK-MEL-5) was 42.8 µM (inactive), the GI50 (CCRF-CEM) was 25.9 µM (inactive) and the GI50 (KM-20L2) was 60.8 µM (inactive). For the same compound, the GI50 (SK-OV-3) was > 100 µM (inactive), the GI50 (DMS-273) was > 100 µM (inactive) and the GI50 (SN12C) was 94.2 µM (inactive). For the same compound, the GI50 (SNB-78) was > 100 µM (inactive), the GI50 (UACC-62) was 83 µM (inactive) and the GI50 (MOLT-4) was 25.9 µM (inactive). For the same compound, the GI50 (HL-60) was 34.4 µM (inactive), the GI50 (A498) was > 100 µM (inactive) and the GI50 (RXF 393) was > 100 µM (inactive). For the same compound, the GI50 (HCC 2998) was > 100 µM (inactive), the GI50 (Malme-3M) was > 100 µM (inactive) and the GI50 (U-251) was 97.3 µM (inactive). For the same compound, the GI50 (RPMI-8226) was 91.4 µM (inactive).

For `CCC1=C(C)/C(=C/c2[nH]c(CBr)c(CC)c2C)N=C1CBr`, the GI50 (DMS-114) was 7.21 µM (inactive), the GI50 (OVCAR-4) was 13 µM (inactive) and the GI50 (SNB-19) was 16.4 µM (inactive). For the same compound, the GI50 (UO-31) was 3.52 µM (inactive), the GI50 (SK-MEL-2) was 22.2 µM (inactive) and the GI50 (HOP-92) was 7.46 µM (inactive). For the same compound, the GI50 (OVCAR-5) was > 10 µM (inactive), the GI50 (HCT-15) was 8.71 µM and the GI50 (HT-29) was 12.5 µM (inactive). For the same compound, the GI50 (OVCAR-8) was 7.23 µM (inactive), the GI50 (A549) was 18.4 µM (inactive) and the GI50 (M14) was 16.5 µM (inactive). For the same compound, the GI50 (SW-620) was 12.2 µM (inactive), the GI50 (NCI-H23) was 14.6 µM (inactive) and the GI50 (UACC-257) was > 10 µM (inactive). The GI50 (OVCAR-3) was 16.1 µM (inactive), the GI50 (HOP-18) was 11 µM (inactive) and the GI50 (CAKI-1) was 10.2 µM (inactive). For the same compound, the GI50 (NCI-H460) was 19 µM (inactive), the GI50 (LXFL 529) was 4.43 µM (inactive) and the GI50 (LOX IMVI) was > 100 µM (inactive). The GI50 (K562) was 8.22 µM (inactive), the GI50 (M19-MEL) was 13.7 µM (inactive) and the GI50 (RXF 631) was > 100 µM (inactive). For the same compound, the GI50 (KM12) was 11.6 µM (inactive), the GI50 (COLO 205) was 11.3 µM (inactive) and the GI50 (SF-268) was 13.7 µM (inactive). The GI50 (SK-MEL-28) was 15.6 µM (inactive), the GI50 (786-0) was 17 µM (inactive) and the GI50 (SF-295) was 20.9 µM (inactive). For the same compound, the GI50 (TK-10) was 18.4 µM (inactive), the GI50 (SNB-75) was 29.6 µM (inactive) and the GI50 (IGROV-1) was 18.5 µM (inactive). For the same compound, the GI50 (SF-539) was 18.7 µM (inactive), the GI50 (HOP-62) was 15 µM (inactive) and the GI50 (SK-MEL-5) was 16.8 µM (inactive). For the same compound, the GI50 (CCRF-CEM) was 2.51 µM (inactive), the GI50 (NCI-H522) was 2.81 µM (inactive) and the GI50 (DLD-1) was 12.4 µM (inactive). The GI50 (KM-20L2) was 11.4 µM (inactive), the GI50 (SK-OV-3) was 19 µM (inactive) and the GI50 (DMS-273) was > 100 µM (inactive). The GI50 (SN12C) was 10 µM (inactive), the GI50 (UACC-62) was 6.05 µM (inactive) and the GI50 (MOLT-4) was 5.81 µM (inactive). For the same compound, the GI50 (HL-60) was 4.59 µM (inactive), the GI50 (ACHN) was > 10 µM (inactive) and the GI50 (EKVX) was 21.7 µM (inactive). For the same compound, the GI50 (RXF 393) was 12.1 µM (inactive), the GI50 (HCC 2998) was 12.2 µM (inactive) and the GI50 (Malme-3M) was 20.7 µM (inactive). The GI50 (U-251) was 11.3 µM (inactive) and the GI50 (RPMI-8226) was 5.66 µM (inactive).
